The record followed here is paper PMC9786051, “Natural Product 2-Oxokolavenol Is a Novel FXR Agonist” (Molecules, 2022).

SMILES strings stand for the structures.

Assay [1] concerns the target T1, Farnesoid X receptor (FXR) (Homo sapiens, UniProt Q96RI1).
T1 construct: gene NR1H4; 6His-FXR-LBD (residues 243-472aa)
T1 sequence (Q96RI1 257-486): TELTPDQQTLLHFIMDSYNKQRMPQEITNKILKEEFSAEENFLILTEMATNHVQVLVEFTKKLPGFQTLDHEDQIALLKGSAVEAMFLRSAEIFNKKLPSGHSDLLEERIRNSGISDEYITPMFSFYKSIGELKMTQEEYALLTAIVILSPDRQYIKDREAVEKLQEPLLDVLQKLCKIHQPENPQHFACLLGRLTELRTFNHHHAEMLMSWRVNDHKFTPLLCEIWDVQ
The assay can be described thus: AlphaScreen coactivator recruitment with purified FXR-LBD; also luciferase reporter (EC50 […]) and M265I/Y369F mutagenesis. The assay is classed as binding.

The target of assay [2] is T1, Farnesoid X receptor (FXR). Kind of assay: AlphaScreen coactivator recruitment with purified FXR-LBD; luciferase reporter. Format: biochemical.

On to `CC1=CC(=O)C[C@@H]2[C@@](C)(CC/C(C)=C/CO)[C@H](C)CC[C@@]12C` [2-oxokolavenol], for which the EC50 in assay [1] was approximately 3.7 µM.

Regarding `CC1=CCC[C@@H]2[C@@](C)(CC/C(C)=C/CO)[C@H](C)CC[C@@]12C` [kolavenol], in assay [2], the “AlphaScreen coactivator recruitment with purified FXR-LBD; luciferase reporter” value is on record as “motifs bound to FXR-LBD in response to 2-oxokolavenol, 2-oxokolavelool, kolavenol, or OCA in the AlphaScreen assay”.

By EC50 is commonly meant the concentration giving half of the maximal effect. A higher EC50 goes with a need for much substance.
